Laboratory results reported in patent US8846670B2, “1,2,3,4-tetrahydro-pyrimido(1,2-a)pyrimidin-6-one derivatives, preparation thereof, and pharmaceutical use thereof” (priority 2009, dated 2014).

Columns and labels:
Type in all cases: cell-based
[1] = tested on: P. falciparum (highly chloroquine-resistant strain Fcm29-Cameroon); assay: Antimalarial activity test (radioactive micromethod of Desjardins); conditions: Plasmodium falciparum, Erythrocyte, infected human erythrocytes, 48 h, tritiated hypoxanthine incorporation
Method: Antimalarial Activity Test
The P. falciparum strains are cultured in solutions of RPM! […] For each assay, the parasites are incubated with selected concentrations of drugs for 48 h at 37° C. in a humid atmosphere and at 5% CO2. Artemisinin, artesunate and also chloroquine diphosphate are used as reference molecules. The first dilution of the drug is prepared at 1 mg/ml in dimethyl sulphoxide. The range of successive daughter solution dilutions is also prepared in dimethyl sulphoxide. […] These dilutions are then added to the parasites in culture in the microplates. […] The growth of the parasites is measured by incorporation of tritiated hypoxanthine (added 24 h after the beginning of the exposure to the drug) compared with the incorporation in the absence of drug.

[2] = tested on: translocation of the LC3 protein in Hela GFP-LC3 cells; assay: Study of the translocation of the LC3 protein in Hela human cells, measured by image analysis cytometry (Test C, autophagy); conditions: 2 h, Hela GFP-LC3 cells with LC3 granulations, EBSS + 10 μM hydroxychloroquine, absolute IC50
Method: The inhibitory activity of the molecules on autophagy is measured by the translocation of the LC3 protein from the cytoplasm to the autophagosomes. For this, Hela cells were transfected with a vector encoding the chimeric protein GFP-LC3. A Hela clone stably expressing the GFP-LC3 protein was selected.
Study of the Translocation of the LC3 Protein in Hela Human Cells, Measured by Image Analysis Cytometry (Test C):
On day 2, the cells are washed twice with EBSS (Sigma #E3024). The cells are then incubated in EBSS, 10 μM of hydroxychloroquine and test products for 2 h at 37° C. in the presence of 5% CO2. The molecules are diluted in dimethyl sulphoxide (DMSO Sigma #D2650), the final DMSO percentage being 0.1%.
After this incubation, the cells are fixed with 4% paraformaldehyde (Sigma #HT501128 4 L) for 10 min. […] The 96-well plates are then read with the iCyte image analysis cytometer (Compucyte).
Two independent experiments make it possible to calculate the mean of the IC50 values.

[3] = tested on: AKT protein phosphorylated on serine 473 (P-AKT-S473) in PC3 human prostate carcinoma line; assay: Study of pAKT expression in PC3 human prostate carcinoma cells measured by the MSD Multi-spot Biomarker Detection technique (Test B); conditions: MSD sandwich immunoassay, 1 to 2 h incubation, absolute IC50, mean of 2 experiments
Method: The inhibitory activity of the molecules on AKT phosphorylation is measured either by western blotting using the technique described below, or by the MSD Multi-spot Biomarker detection technique from Meso Scale Discovery also described below.
Study of pAKT Expression in PC3Human Prostate Carcinoma Cells Measured by the MSD Multi-Spot Biomarker Detection Technique from Meso Scale Discovery (Test B):
The primary antibody specific for P-AKT-S473 (Kit #K151CAD) is coated onto an electrode in each well of the 96-well plates of the MSD kit: after the addition of a protein lysate to each well, the signal is visualised by adding a secondary detection antibody labelled with an electrochemiluminescent compound. The procedure followed is that described in the kit.
On day 2, the cells are incubated in the presence or absence of the test products for 1 to 2 h at 37° C. in the presence of 5% of CO2. The molecules, diluted in dimethyl sulphoxide (DMSO Sigma #D2650), are added from a 20-times concentrated stock solution, the final percentage of DMSO being 0.1%.
After this incubation, the cells are lysed for the preparation of the proteins. […] At this stage, the plates containing the lysates can be frozen at −20° C. or at −80° C.
The wells of the 96-well plates of the MSD kit are saturated for 1 h at ambient temperature with the blocking solution of the MSD kit. Four washes are carried out with 150 μl of Tris Wash Buffer of the MSD kit. The lysates previously prepared are transferred into the 96-well multi-spot plates of the MSD kit and incubated for 1 h at ambient temperature, with shaking. Four washes are carried out with 150 μl of Tris Wash Buffer of the MSD kit. 25 μl of the MSD sulfo-tag detection antibody solution are added to the wells and incubated for 1 h at ambient temperature, with shaking. Four washes are carried out with 150 μl of Tris Wash Buffer of the MSD kit. 150 μl of Read Buffer of the MSD kit are added to the wells and the plates are read immediately on the S12400 instrument from Meso Scale Discovery.
The instrument measures a signal for each well. Wells without cells and containing the lysis buffer serve to determine the background noise that will be subtracted from all the measurements (min). The wells containing cells in the absence of product and in the presence of 0.1% DMSO are considered to be the 100% signal (max). The percentage inhibition is calculated for each concentration of test product according to the following formula: (1−((test−min)/(max−min)))×100.
2 independent experiments make it possible to calculate the mean of the IC50 values.

[4] = Homo sapiens, PC-3, P-AKT-S473 in PC3 cells

SMILES | IC50 ([2]; Homo sapiens, HeLa) [nM] | IC50 [3, 4] [nM] | further results
COc1ccccc1[C@H](O)CN1c2nc(N3CCOCC3)cc(=O)n2CC[C@H]1C(F)(F)F [Example 51, 9-[(S)-2-Hydroxy-2-(2-methoxyphenyl)ethyl]-2-morpholin-4-yl-8-(S)-trifluoromethyl-6,7,8,9-tetrahydropyrimido[1,2-a]pyrimidin-4-one] | – | – | inhibition at 0.1 µM [1]: 75%; inhibition at 1 µM [1]: 99%
COc1cc(Cl)ccc1[C@H](O)CN1c2nc(N3CCOCC3)cc(=O)n2CC[C@H]1C(F)(F)F [Example 53, 9-[(S)-2-(4-Chloro-2-methoxyphenyl)-2-hydroxyethyl]-2-morpholin-4-yl-8-(S)-trifluoromethyl-6,7,8,9-tetrahydro-pyrimido[1,2-a]pyrimidin-4-one] | – | – | inhibition at 0.1 µM [1]: 75%; inhibition at 1 µM [1]: 99%
COc1ccc([C@H](O)CN2c3nc(N4CCOCC4)cc(=O)n3CC[C@H]2C(F)(F)F)c(Cl)c1 [Example 54, 9-[(S)-2-(2-Chloro-4-methoxyphenyl)-2-hydroxyethyl]-2-morpholin-4-yl-8-(S)-trifluoromethyl-6,7,8,9-tetrahydro-pyrimido[1,2-a]pyrimidin-4-one] | – | – | inhibition at 0.1 µM [1]: 83%; inhibition at 1 µM [1]: 99%
O=C(Cc1ccccc1)N1c2nc(N3CCOCC3)cc(=O)n2CC[C@H]1C(F)(F)F [Example 45, (8S)-2-(morpholin-4-yl)-9-(phenylacetyl)-8-(trifluoromethyl)-6,7,8,9-tetrahydro-4 H-pyrimido[1,2-a]pyrimidin-4-one] | > 1000 | 14 | –
O=C(c1c(F)cccc1F)N1c2nc(N3CCOCC3)cc(=O)n2CC[C@H]1C(F)(F)F [Example 43, (8S)-9-[(2,6-difluorophenyl)carbonyl]-2-(morpholin-4-yl)-8-(trifluoromethyl)-6,7,8,9-tetrahydro-4 H-pyrimido[1,2-a]pyrimidin-4-one] | 986 | 16 | –
CC(c1ccccc1F)N1c2nc(N3CCOCC3)cc(=O)n2CC[C@H]1C(F)(F)F (single isomer, unassigned) [Example 39, (8S)-9-[(1R or 1S)-1-(2-fluorophenyl)ethyl]-2-(morpholin-4-yl)-8-(trifluoromethyl)-6,7,8,9-tetrahydro-4 H-pyrimido[1,2-a]pyrimidin-4-one] | – | – | IC50 [2]: 237 nM; IC50 ([3]; P-AKT-S473 in PC3 cells): 5 nM
O=c1cc(N2CCOCC2)nc2n1CC[C@@H](C(F)(F)F)N2c1cccnc1 [Example 19, (S)-2-morpholin-4-yl-9-pyridin-3-yl-8-trifluoromethyl-6,7,8,9-tetrahydropyrimido[1,2-a]pyrimidin-4-one] | > 1000 | 39 | –
O=c1cc(N2CCOCC2)nc2n1CC[C@@H](C(F)(F)F)N2Cc1ccccc1Cl [Example 22, (8S)-9-(2-chlorobenzyl)-2-(morpholin-4-yl)-8-(trifluoro-methyl)-6,7,8,9-tetrahydro-4H-pyrimido[1,2-a]pyrimidin-4-one] | 785 | 23 | –
O=C(c1ccccc1F)N1c2nc(N3CCOCC3)cc(=O)n2CC[C@H]1C(F)(F)F [Example 28, (8S)-9-[(2-fluorophenyl)carbonyl]-2-(morpholin-4-yl)-8-(trifluoromethyl)-6,7,8,9-tetrahydro-4H-pyrimido[1,2-a]pyrimidin-4-one] | > 10000 | 33 | –
O=c1cc(N2CCOCC2)nc2n1CC[C@@H](C(F)(F)F)N2Cc1cccc(F)c1 [Example 23, (8S)-9-(3-fluorobenzyl)-2-(morpholin-4-yl)-8-(trifluoromethyl)-6,7,8,9-tetrahydro-4H-pyrimido[1,2-a]pyrimidin-4-one] | 663 | 24 | –

The next lines start with results.

IC50 ([2]; Homo sapiens, HeLa) [nM] | IC50 [3, 4] [nM] | SMILES | further results
319 | 46 | C[C@H](c1ccc(Br)cc1)N1c2nc(N3CCOCC3)cc(=O)n2CC[C@H]1C(F)(F)F (single isomer, unassigned) [Example 11, (8S)-9-[(1S or 1R)-1-(4-bromophenyl)ethyl]-2-(morpholin-4-yl)-8-(trifluoromethyl)-6,7,8,9-tetrahydro-4H-pyrimido[1,2-a]pyrimidin-4-one] | –
270 | 18 | COc1cccc(CN2c3nc(N4CCOCC4)cc(=O)n3CC[C@H]2C(F)(F)F)c1 [Example 26, (8S)-9-(3-methoxybenzyl)-2-(morpholin-4-yl)-8-(trifluoromethyl)-6,7,8,9-tetrahydro-4H-pyrimido[1,2-a]pyrimidin-4-one] | –
270 | 18 | O=c1cc(N2CCOCC2)nc2n1CC[C@@H](C(F)(F)F)N2c1ccc(C(F)(F)F)cc1 [Example 37, (8S)-2-(morpholin-4-yl)-8-(trifluoromethyl)-9-[4-(trifluoro-methyl)phenyl]-6,7,8,9-tetrahydro-4H-pyrimido[1,2-a]pyrimidin-4-one] | –
557 | 150 | O=c1cc(N2CCOCC2)nc2n1CC[C@@H](C(F)(F)F)N2Cc1ccc(F)c(F)c1F [Example 31, (8S)-2-(morpholin-4-yl)-9-(2,3,4-trifluorobenzyl)-8-(trifluoro-methyl)-6,7,8,9-tetrahydro-4H-pyrimido[1,2-a]pyrimidin-4-one] | –
337 | 15 | O=c1cc(N2CCOCC2)nc2n1CC[C@@H](C(F)(F)F)N2c1cccc(F)c1 [Example 14, (8S)-9-(3-fluorophenyl)-2-(morpholin-4-yl)-8-(trifluoromethyl)-6,7,8,9-tetrahydro-4H-pyrimido[1,2-a]pyrimidin-4-one] | –
16 | 4 | O=c1cc(N2CCOCC2)nc2n1CC[C@@H](C(F)(F)F)N2CCc1cccc(Cl)c1 [Example 46, (8S)-9-[2-(3-chlorophenyl)ethyl]-2-(morpholin-4-yl)-8-(trifluoromethyl)-6,7,8,9-tetrahydro-4 H-pyrimido[1,2-a]pyrimidin-4-one] | –
650 | 20 | Cc1cccc(N2c3nc(N4CCOCC4)cc(=O)n3CC[C@H]2C(F)(F)F)c1 [Example 35, (8S)-9-(3-methylphenyl)-2-(morpholin-4-yl)-8-(trifluoro-methyl)-6,7,8,9-tetrahydro-4H-pyrimido[1,2-a]pyrimidin-4-one] | –
82 | 3 | O=c1cc(N2CCOCC2)nc2n1CC[C@@H](C(F)(F)F)N2CCc1cccc(F)c1 [Example 40, (8S)-9-[2-(3-fluorophenyl)ethyl]-2-(morpholin-4-yl)-8-(trifluoromethyl)-6,7,8,9-tetrahydro-4 H-pyrimido[1,2-a]pyrimidin-4-one] | –
157 | 24 | Cc1ccc(N2c3nc(N4CCOCC4)cc(=O)n3CC[C@H]2C(F)(F)F)cc1 [Example 21, (8S)-9-(4-methylphenyl)-2-(morpholin-4-yl)-8-(trifluoro-methyl)-6,7,8,9-tetrahydro-4H-pyrimido[1,2-a]pyrimidin-4-one] | –
